Assay results taken from patent US10780074B2, “Compounds and uses thereof” (Sunovion Pharmaceuticals Inc., priority 2017, dated 2020).
Structures can show the parent of a compound that is named as a salt.

Test system: behaviors of compound-treated mice
Test: Neuropharmacological Assay (SmartCube)
Format: in vivo
Conditions: for minimal effective dose: Mus musculus, ip, 0.25 h, dose having 50% or more total activity in SmartCube, i.p., read-out: MED (minimal effective dose); for AD: ADHD (probability that activity matches class) / AG: analgesic (probability that activity matches class) / AX: anxiolytic (probability that activity matches class) / CE: cognitive enhancer (probability that activity matches class) / DP: anti-depressant (probability that activity matches class) / MS: mood stabilizer (probability that activity matches class) / PS: anti-psychotic (probability that activity matches class) / SD: sedative hypnotic (probability that activity matches class) / UN: uncharacterized CNS activity (probability that activity matches class): i.p. 15 min before behavioral test, most efficacious dose(s) of 3 doses
Method in brief: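 Mice dosed i.p. 15 min before testing, with compound in N-methyl-2-pyrrolidone/PEG/propylene glycol, were video-recorded and algorithmically compared with reference-drug behavioral signatures. This gave class-match probabilities (antidepressant, anxiolytic, etc.) at the most efficacious of 3 doses. MED was defined as the dose with ≥50% total activity, usually tested across 0.3–30 mpk.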

SMILES | minimal effective dose | AD: ADHD (probability that activity matches class) | AG: analgesic (probability that activity matches class) | AX: anxiolytic (probability that activity matches class) | CE: cognitive enhancer (probability that activity matches class) | DP: anti-depressant (probability that activity matches class) | MS: mood stabilizer (probability that activity matches class) | PS: anti-psychotic (probability that activity matches class) | SD: sedative hypnotic (probability that activity matches class) | UN: uncharacterized CNS activity (probability that activity matches class)
NC[C@@H]1OCCc2c(-c3ccnnc3)cccc21 (single isomer, unassigned) [Compound 78, hydrochloride salt] | 3 to 10 mg/kg | + (LOQ ≤ + <5%) | + (LOQ ≤ + <5%) | ++ (5% ≤ ++ <25%) | + (LOQ ≤ + <5%) | + (LOQ ≤ + <5%) | + (LOQ ≤ + <5%) | + (LOQ ≤ + <5%) | + (LOQ ≤ + <5%) | + (LOQ ≤ + <5%)
NC[C@H]1OCCc2c(-c3ccnnc3)cccc21 (single isomer, unassigned) [Compound 79, hydrochloride salt] | 3 to 10 mg/kg | + (LOQ ≤ + <5%) | + (LOQ ≤ + <5%) | + (LOQ ≤ + <5%) | + (LOQ ≤ + <5%) | ++ (5% ≤ ++ <25%) | + (LOQ ≤ + <5%) | + (LOQ ≤ + <5%) | + (LOQ ≤ + <5%) | + (LOQ ≤ + <5%)
CNC[C@@H]1OCCc2c(-c3cnccn3)cccc21 (single isomer, unassigned) [Compound 80] | 3 to 10 mg/kg | + (LOQ ≤ + <5%) | + (LOQ ≤ + <5%) | ++ (5% ≤ ++ <25%) | + (LOQ ≤ + <5%) | + (LOQ ≤ + <5%) | + (LOQ ≤ + <5%) | + (LOQ ≤ + <5%) | + (LOQ ≤ + <5%) | + (LOQ ≤ + <5%)
NC[C@@H]1OCCc2c(-c3cnccn3)cccc21 (single isomer, unassigned) [Compound 82, hydrochloride salt] | 10 to 30 mg/kg | + (LOQ ≤ + <5%) | + (LOQ ≤ + <5%) | ++ (5% ≤ ++ <25%) | + (LOQ ≤ + <5%) | + (LOQ ≤ + <5%) | + (LOQ ≤ + <5%) | + (LOQ ≤ + <5%) | + (LOQ ≤ + <5%) | + (LOQ ≤ + <5%)
NC[C@H]1OCCc2c(-c3cnccn3)cccc21 (single isomer, unassigned) [Compound 83, hydrochloride salt] | 3 to 10 mg/kg | ++ (5% ≤ ++ <25%) | + (LOQ ≤ + <5%) | ++ (5% ≤ ++ <25%) | + (LOQ ≤ + <5%) | ++++ (50% ≤ ++++) | + (LOQ ≤ + <5%) | + (LOQ ≤ + <5%) | + (LOQ ≤ + <5%) | + (LOQ ≤ + <5%)
CNC[C@@H]1OCCc2c(-c3cnoc3)cccc21 (single isomer, unassigned) [Compound 84, hydrochloride salt] | 3 to 10 mg/kg | ++ (5% ≤ ++ <25%) | + (LOQ ≤ + <5%) | ++ (5% ≤ ++ <25%) | ++ (5% ≤ ++ <25%) | ++ (5% ≤ ++ <25%) | + (LOQ ≤ + <5%) | + (LOQ ≤ + <5%) | + (LOQ ≤ + <5%) | ++ (5% ≤ ++ <25%)
CNC[C@H]1OCCc2c(-c3cnoc3)cccc21 (single isomer, unassigned) [Compound 85, hydrochloride salt] | ≤ 3 mg/kg | ++ (5% ≤ ++ <25%) | + (LOQ ≤ + <5%) | ++ (5% ≤ ++ <25%) | + (LOQ ≤ + <5%) | ++++ (50% ≤ ++++) | + (LOQ ≤ + <5%) | + (LOQ ≤ + <5%) | + (LOQ ≤ + <5%) | ++ (5% ≤ ++ <25%)
NC[C@@H]1OCCc2c(-c3cnoc3)cccc21 (single isomer, unassigned) [Compound 86, hydrochloride salt] | 3 to 10 mg/kg | + (LOQ ≤ + <5%) | + (LOQ ≤ + <5%) | ++ (5% ≤ ++ <25%) | ++ (5% ≤ ++ <25%) | ++ (5% ≤ ++ <25%) | + (LOQ ≤ + <5%) | ++ (5% ≤ ++ <25%) | + (LOQ ≤ + <5%) | +++ (25% ≤ +++ <50%)
